45 compounds from US11440909B2, “10H-phenothiazine ferroptosis inhibitor as well as the preparative method and the use thereof” (CHENGDU HENGHAO INVESTMENT CO. LIMITED, priority 2018, dated 2022) can be followed below.

Each structure is given as a SMILES string.

One test relates to fibrosarcoma cell line HT1080. In words: Ferroptosis screening model (MTT method), Erastin-induced ferroptosis. The class given is cell-based, human. As to conditions: HT1080, ferroptosis inducer Erastin, 72 h, average of three tests, read-out: EC50. The procedure:
The screening model for ferroptosis mainly used MTT method. First, the fibrosarcoma cell line HT1080 was cultured in a dish, and the cells in the logarithmic growth phase were inoculated into a 96-well plate in a certain number (3000-10000 cells/well), 100 μL per well, and then the plate was put in an 5% CO2 incubator at 37° C., to allow the cells to adhere. After 24 h, 100 μL compound solution at a certain concentration prepared in the designated medium and ferroptosis inducer Erastin (with a final concentration of […]) were added, setting 3 replicate wells for each compound to ensure the accuracy of the results, and a negative control group, a positive control group (Fer-15 μM), a blank control group and a solvent control group were included. After addition of drugs, the plate was placed in an incubator and cultivated for 72 h. On the day of MTT experiment, MTT test solution (5 mg/mL MTT solution dissolved in physiological saline, and stored in the dark at 4° C.) was pre-prepared and 20 μL MTT solution was added to each well, then the plate was put in an incubator and continued to incubate for 2-4 h. After that, 50 μL of 20% SDS solution (dissolved in MiliiQ water, added with 1% concentrated hydrochloric acid) was added to each well and kept in an incubator overnight. On the next day, the absorbance at 570 nm was measured with a microplate reader, to calculate the inhibition rate of drugs on ferroptosis. Generally, the absorbance value of the control group should be in the range of 0.8-1.2 as a normal value.
GraphPadPrism5 software was used to fit the change curve of inhibition rate and calculate the EC50.
For orientation: Tetrazolium dyes change colour on reduction, which living cells bring about.
A word on the EC50: it is the concentration that produces a half-maximal response. Take `CC(c1ccccc1)c1ccc2c(c1)Nc1ccccc1S2` (stereo not drawn) [Compound A1, 2-(1-phenylethyl)-10H-phenothiazine]: the EC50 turned out to be 3 nM. Turning to `CC(C)Oc1ccc(C(C)c2ccc3c(c2)Nc2ccccc2S3)cc1` (stereo not drawn) [Compound A33, 2-(1-(4-isopropoxylphenyl)ethyl)-10H-phenothiazine], the EC50 was found to be 17 nM. For the compound `CC(C)Oc1ccc(C(C)c2ccc3c(c2)Nc2ccccc2S3)cc1` (stereo not drawn) [Compound A34, 2-(1-(4-isopropoxylphenyl)ethyl)-10H-phenothiazine], the EC50 turned out to be 65 nM.

The test is the same for the next values; noted with them: Homo sapiens, HT-1080, 72 h, HT1080, ferroptosis inducer Erastin, 72 h, average of three tests, read-out: EC50.
Take `CC(c1cccc(F)c1)c1ccc2c(c1)Nc1ccccc1S2` (stereo not drawn) [Compound A2, 2-(1-(3-fluorophenyl)ethyl)-10H-phenothiazine]: the EC50 came to 6 nM. On to `CC(c1cccc(Cl)c1)c1ccc2c(c1)Nc1ccccc1S2` (stereo not drawn) [Compound A3, 2-(1-(3-chlorophenyl)ethyl)-10H-phenothiazine], for which the EC50 is 5 nM.

On to `CC(c1cccc(I)c1)c1ccc2c(c1)Nc1ccccc1S2` (stereo not drawn) [Compound A4, 2-(1-(3-iodophenyl)ethyl)-10H-phenothiazine], for which the EC50 was determined as 5 nM. In the case of `CC(c1cccc(C#N)c1)c1ccc2c(c1)Nc1ccccc1S2` (stereo not drawn) [Compound A5, 3-(1-(10H-phenothiazin-2-yl)ethyl)benzonitrile], the EC50 came out at 15 nM. For `CC(c1cccc(O)c1)c1ccc2c(c1)Nc1ccccc1S2` (stereo not drawn) [Compound A6, 3-(1-(10H-phenothiazin-2-yl)ethyl)phenol], the EC50 amounted to 5 nM.

Regarding `CC(c1cccc(N)c1)c1ccc2c(c1)Nc1ccccc1S2` (stereo not drawn) [Compound A7, 3-(1-(10H-phenothiazin-2-yl)ethyl)phenylamine], the concentration for a half-maximal effect (EC50) was found to be 1 nM. `Cc1cccc(C(C)c2ccc3c(c2)Nc2ccccc2S3)c1` (stereo not drawn) [Compound A8, 2-(1-(m-methylphenyl)ethyl)-10H-phenothiazine]: the EC50 came out at 5 nM.

For `CCc1cccc(C(C)c2ccc3c(c2)Nc2ccccc2S3)c1` (stereo not drawn) [Compound A9, 2-(1-(3-ethylphenyl)ethyl)-10H-phenothiazine], the EC50 came to 18 nM. On the same count and under the same terms, for `CC(C)c1cccc(C(C)c2ccc3c(c2)Nc2ccccc2S3)c1` (stereo not drawn) [Compound A10, 2-(1-(3-isopropylphenyl)ethyl)-10H-phenothiazine] the value was 12 nM; for `CCOc1cccc(C(C)c2ccc3c(c2)Nc2ccccc2S3)c1` (stereo not drawn) [Compound A11, 2-(1-(3-ethoxylphenyl)ethyl)-10H-phenothiazine], 19 nM; for `CC(C)Oc1cccc(C(C)c2ccc3c(c2)Nc2ccccc2S3)c1` (stereo not drawn) [Compound A12, 2-(1-(3-isopropoxylphenyl)ethyl)-10H-phenothiazine], 15 nM. As for `CC(c1cccc(OCc2ccccc2)c1)c1ccc2c(c1)Nc1ccccc1S2` (stereo not drawn) [Compound A13, 2-(1-(3-(benzyloxyl)phenyl)ethyl)-10H-phenothiazine], the EC50 is 25 nM. As for `CCOC(=O)c1cccc(C(C)c2ccc3c(c2)Nc2ccccc2S3)c1` (stereo not drawn) [Compound A14, 3-(1-(10H-phenothiazin-2-yl)ethyl)benzoic acid ethyl ester], the EC50 was 5 nM. Turning to `CC(c1cccc(C(=O)OC(C)(C)C)c1)c1ccc2c(c1)Nc1ccccc1S2` (stereo not drawn) [Compound A15, 3-(1-(10H-phenothiazin-2-yl)ethyl)benzoic acid t-butyl ester], the EC50 turned out to be 17 nM. On the same count and under the same terms, in the case of `CC(c1cccc(NC(=O)OC(C)(C)C)c1)c1ccc2c(c1)Nc1ccccc1S2` (stereo not drawn) [Compound A16, (3-(1-(10H-phenothiazin-2-yl)ethyl)phenyl)carbamic acid t-butyl ester] it was 49 nM.

`CC(c1cccc(OC(F)(F)F)c1)c1ccc2c(c1)Nc1ccccc1S2` (stereo not drawn) [Compound A17, 2-(1-(3-(trifluoromethoxyl)phenyl)ethyl)-10H-phenothiazine]: the EC50 was found to be 13 nM. Turning to `CC(c1cccc(-c2ccccc2)c1)c1ccc2c(c1)Nc1ccccc1S2` (stereo not drawn) [Compound A18, 2-(1-([1,1′-diphenyl]-3-yl)ethyl)-10H-phenothiazine], the EC50 amounted to 70 nM. For the compound `CC(c1ccc(F)cc1)c1ccc2c(c1)Nc1ccccc1S2` (stereo not drawn) [Compound A19, 2-(1-(4-fluorophenyl)ethyl)-10H-phenothiazine], the EC50 amounted to 6 nM. For `CC(c1ccc(Cl)cc1)c1ccc2c(c1)Nc1ccccc1S2` (stereo not drawn) [Compound A20, 2-(1-(4-chlorophenyl)ethyl)-10H-phenothiazine], the EC50 came out at 15 nM.

Turning to `CC(c1ccc(C(F)(F)F)cc1)c1ccc2c(c1)Nc1ccccc1S2` (stereo not drawn) [Compound A21, 2-(1-(4-(trifluoromethyl)phenyl)ethyl)-10H-phenothiazine], the EC50 was 6 nM. In the case of `CC(c1ccc(C#N)cc1)c1ccc2c(c1)Nc1ccccc1S2` (stereo not drawn) [Compound A22, 4-(1-(10H-phenothiazin-2-yl)ethyl)benzonitrile], the EC50 came to 6 nM.

For `CC(c1ccc(OC(F)(F)F)cc1)c1ccc2c(c1)Nc1ccccc1S2` (stereo not drawn) [Compound A23, 2-(1-(4-(trifluoromethoxyl)phenyl)ethyl)-10H-phenothiazine], the EC50 stood at 20 nM. Take `CCc1ccc(C(C)c2ccc3c(c2)Nc2ccccc2S3)cc1` (stereo not drawn) [Compound A24, 2-(1-(4-ethylphenyl)ethyl)-10H-phenothiazine]: the EC50 was found to be 20 nM. The same measure, in the same setting: in the case of `CCCc1ccc(C(C)c2ccc3c(c2)Nc2ccccc2S3)cc1` (stereo not drawn) [Compound A25, 2-(1-(4-propylphenyl)ethyl)-10H-phenothiazine] it was 21 nM; in that of `CC(C)c1ccc(C(C)c2ccc3c(c2)Nc2ccccc2S3)cc1` (stereo not drawn) [Compound A26, 2-(1-(4-isopropylphenyl)ethyl)-10H-phenothiazine], 6 nM; in that of `CCCCc1ccc(C(C)c2ccc3c(c2)Nc2ccccc2S3)cc1` (stereo not drawn) [Compound A27, 2-(1-(4-butylphenyl)ethyl)-10H-phenothiazine], 64 nM. On the same count and under the same terms, in the case of `CC(C)Cc1ccc(C(C)c2ccc3c(c2)Nc2ccccc2S3)cc1` (stereo not drawn) [Compound A28, 2-(1-(4-isobutylphenyl)ethyl)-10H-phenothiazine] it was 8 nM; in that of `CC(c1ccc(C(C)(C)C)cc1)c1ccc2c(c1)Nc1ccccc1S2` (stereo not drawn) [Compound A29, 2-(1-(4-t-butylphenyl)ethyl)-10H-phenothiazine], 7 nM. Regarding `COc1ccc(C(C)c2ccc3c(c2)Nc2ccccc2S3)cc1` (stereo not drawn) [Compound A30, 2-(1-(4-methoxylphenyl)ethyl)-10H-phenothiazine], the EC50 was 6 nM. For the compound `CCOc1ccc(C(C)c2ccc3c(c2)Nc2ccccc2S3)cc1` (stereo not drawn) [Compound A31, 2-(1-(4-ethoxylphenyl)ethyl)-10H-phenothiazine], the EC50 was determined as 17 nM. For `CCCOc1ccc(C(C)c2ccc3c(c2)Nc2ccccc2S3)cc1` (stereo not drawn) [Compound A32, 2-(1-(4-propoxylphenyl)ethyl)-10H-phenothiazine], the concentration giving a half-maximal response (EC50) worked out at 62 nM. In the case of `CC(c1ccc(OCc2ccccc2)cc1)c1ccc2c(c1)Nc1ccccc1S2` (stereo not drawn) [Compound A35, 2-(1-(4-(benzyloxyl)phenyl)ethyl)-10H-phenothiazine], the EC50 was found to be 14 nM. As to `COC(=O)c1ccc(C(C)c2ccc3c(c2)Nc2ccccc2S3)cc1` (stereo not drawn) [Compound A36, 4-(1-(10H-phenothiazin-2-yl)ethyl)benzoic acid methyl ester], the EC50 came out at 13 nM.

For the compound `CC(c1ccc(N(c2ccccc2)c2ccccc2)cc1)c1ccc2c(c1)Nc1ccccc1S2` (stereo not drawn) [Compound A37, 4-(1-(10H-phenothiazin-2-yl)ethyl)-N,N-diphenylphenylamine], the EC50 came out at 323 nM. Take `CC(c1ccc(F)c(F)c1)c1ccc2c(c1)Nc1ccccc1S2` (stereo not drawn) [Compound A39, 2-(1-(3,4-difluorophenyl)ethyl)-10H-phenothiazine]: the EC50 stood at 17 nM. On to `CC(c1ccc(F)c(Cl)c1)c1ccc2c(c1)Nc1ccccc1S2` (stereo not drawn) [Compound A40, 2-(1-(3-chloro-4-fluorophenyl)ethyl)-10H-phenothiazine], for which the EC50 turned out to be 5 nM. For `CC(c1ccc2c(c1)Nc1ccccc1S2)c1ccc(F)c(C(F)(F)F)c1` (stereo not drawn) [Compound A41, 2-(1-(4-fluoro-3-(trifluoromethyl)phenyl)ethyl)-10H-phenothiazine], the EC50 turned out to be 18 nM.

`CC(c1ccc(Cl)c(Cl)c1)c1ccc2c(c1)Nc1ccccc1S2` (stereo not drawn) [Compound A42, 2-(1-(3,4-dichlorophenyl)ethyl)-10H-phenothiazine]: the EC50 came out at 16 nM. As for `CC(c1ccc2c(c1)Nc1ccccc1S2)c1ccc(Cl)c(C(F)(F)F)c1` (stereo not drawn) [Compound A43, 2-(1-(4-chloro-3-(trifluoromethyl)phenyl)ethyl)-10H-phenothiazine], the EC50 is 17 nM. Consider `CC(c1ccc(Cl)c(F)c1)c1ccc2c(c1)Nc1ccccc1S2` (stereo not drawn) [Compound A44, 2-(1-(4-chloro-3-fluorophenyl)ethyl)-10H-phenothiazine], for which the EC50 is 19 nM. Regarding `CC(c1ccc(C(F)(F)F)c(Cl)c1)c1ccc2c(c1)Nc1ccccc1S2` (stereo not drawn) [Compound A45, 2-(1-(3-chloro-4-(trifluoromethyl)phenyl)ethyl)-10H-phenothiazine], the EC50 was found to be 22 nM. On to `Cc1ccc(C(C)c2ccc3c(c2)Nc2ccccc2S3)cc1C` (stereo not drawn) [Compound A46, 2-(1-(3,4-dimethylphenyl)ethyl)-10H-phenothiazine], for which the EC50 came to 21 nM.
